Here are results for 28 molecules from patent publication EP0430300A2, “Xanthine derivatives, their production and use” (Takeda Chemical Industries, Ltd., priority 1989, dated 1991).

As usually defined, the pIC50 is −log10 of the IC50, conventionally taken in molar units.

pIC50: −log10 of the molar value.

The target in the assay is T1, Angiotensin II receptor (Bos taurus, UniProt P25104).
T1 construct: Angiotensin II receptor membrane fractions were prepared from bovine adrenal cortex; from tissue; host or cells: bovine adrenal cortex membrane fraction
T1 sequence (P25104 1-359): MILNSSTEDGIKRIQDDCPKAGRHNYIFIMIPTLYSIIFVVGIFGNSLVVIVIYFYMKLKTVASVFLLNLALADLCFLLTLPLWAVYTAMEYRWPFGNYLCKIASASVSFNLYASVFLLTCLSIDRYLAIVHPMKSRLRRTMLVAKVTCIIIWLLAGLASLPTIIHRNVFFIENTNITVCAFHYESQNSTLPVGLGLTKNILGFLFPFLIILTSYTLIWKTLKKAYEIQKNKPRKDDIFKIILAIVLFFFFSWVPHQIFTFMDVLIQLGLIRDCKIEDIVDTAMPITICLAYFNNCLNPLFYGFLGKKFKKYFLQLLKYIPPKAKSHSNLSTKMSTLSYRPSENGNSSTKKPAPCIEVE
Nature of the assay: Inhibitory effect on binding of angiotensin II to angiotensin receptor (125I-AII radioligand binding, membrane fractions). The conditions noted are these: A II receptor membrane fraction from bovine adrenal cortex, room temperature, one hour, compound 10^-9-3x10^-5 M, read-out: Inhibitory Activity against Binding of Angiotensin II IC50. As for the experimental part:
Inhibitory assay for the binding of angiotensin II to angiotensin receptor was conducted by modifying a method as described by Douglas et al. (Endocrinology, 102, 685-696 (1978)).
Angiotensin II receptor membrane fractions were prepared from bovine adrenal cortex.
The compound (I) of the present invention (10^-9-3x10^-5 M) and […] (^125I-AII) (1.8kBq/50µl) were added to the A II receptor membrane fraction and incubated at room temperature for one hour. The bound and free ^125I-AII were separated by a filter (Whatman GF/B filter) each other. The radioactivity of ^125I-All bound on the receptor was measured.
`CCCCc1nc2c(c(=O)n(C)c(=O)n2C)n1Cc1ccc(-c2ccccc2-c2nnn[nH]2)cc1` [Compound 1]: the pIC50 was 6.55.

On to `CCOc1nc2c(c(=O)n(C)c(=O)n2C)n1Cc1ccc(-c2ccccc2-c2nnn[nH]2)cc1` [Compound 2, 8-Ethoxy-1,3-dimethyl-7-[[2'-(1 H-tetrazole-5-yl)-biphenyl-4-yl)methyl)xanthine], for which the pIC50 is 7.31.

Turning to `CCCCCc1nc2c(c(=O)n(C)c(=O)n2C)n1Cc1ccc(-c2ccccc2C(=O)O)cc1` [Compound 4, 7-(2'-Carboxybiphenyl-4-yl)methyl-8-n-pentyl-1,3-dimethylxanthine], the pIC50 was 7.21.

Consider `CCCc1nc2c(c(=O)n(C)c(=O)n2C)n1Cc1ccc(-c2ccccc2-c2nn[nH]n2)cc1` [Compound 5], for which the pIC50 was 6.77.

As for `Cn1c(=O)c2c(nc(-c3ccccc3)n2Cc2ccc(-c3ccccc3-c3nn[nH]n3)cc2)n(C)c1=O` [Compound 7], the pIC50 was 7.19.

`Cn1c(=O)c2c(nc(C3CC3)n2Cc2ccc(-c3ccccc3-c3nn[nH]n3)cc2)n(C)c1=O` [Compound 8]: the pIC50 is 6.22.

With `Cn1c(=O)c2c(nc(C3CCCC3)n2Cc2ccc(-c3ccccc3-c3nn[nH]n3)cc2)n(C)c1=O` [Compound 9], the pIC50 is 6.03.

For `Cn1c(=O)c2c(nc(Cc3ccccc3)n2Cc2ccc(-c3ccccc3-c3nn[nH]n3)cc2)n(C)c1=O` [Compound 10], the pIC50 is 5.47.

As to `CC(Cc1nc2c(c(=O)n(C)c(=O)n2C)n1Cc1ccc(-c2ccccc2-c2nn[nH]n2)cc1)c1ccccc1` (stereo not shown) [Compound 12], the pIC50 was 6.48.

With `CCCCc1nc2c(c(=O)n(C)c(=S)n2C)n1Cc1ccc(-c2ccccc2-c2nn[nH]n2)cc1` [Compound 13], the pIC50 was 7.31.

`Cn1c(=O)c2c(nc(CCCCc3ccccc3)n2Cc2ccc(-c3ccccc3-c3nn[nH]n3)cc2)n(C)c1=O` [Compound 14]: the pIC50 is 6.48.

Regarding `CC(C)Cc1nc2c(c(=O)n(C)c(=O)n2C)n1Cc1ccc(-c2ccccc2-c2nn[nH]n2)cc1` [Compound 15], the pIC50 is 6.82.

With `CCCCSc1nc2c(c(=S)n(C)c(=O)n2C)n1Cc1ccc(-c2ccccc2-c2nn[nH]n2)cc1` [Compound 17], the pIC50 was 6.12.

With `CCCSc1nc2c(c(=S)n(C)c(=O)n2C)n1Cc1ccc(-c2ccccc2-c2nn[nH]n2)cc1` [Compound 19], the negative-log IC50 (pIC50) was 5.82.

On to `CCCSc1nc2c(c(=O)n(C)c(=S)n2C)n1Cc1ccc(-c2ccccc2-c2nn[nH]n2)cc1` [Compound 20], for which the pIC50 is 5.82.

Turning to `CCCc1nc2c(c(=O)n(CC)c(=O)n2CCC)n1Cc1ccc(-c2ccccc2-c2nn[nH]n2)cc1` [Compound 21], the pIC50 is 6.25.

`CCCCc1nc2c(c(=O)n(CC)c(=O)n2CCC)n1Cc1ccc(-c2ccccc2-c2nn[nH]n2)cc1` [Compound 22]: the pIC50 was 6.08.

Consider `CCCCc1nc2c(c(=O)n(CCC)c(=O)n2CCC)n1Cc1ccc(-c2ccccc2-c2nn[nH]n2)cc1` [Compound 23], for which the pIC50 is 5.96.

As to `CCCCSc1nc2c(c(=O)n(CCC)c(=O)n2CCC)n1Cc1ccc(-c2ccccc2-c2nnn[nH]2)cc1` [Compound 25], the pIC50 is 6.25.

As to `CCCCSc1nc2c(c(=O)n(CC)c(=O)n2CCC)n1Cc1ccc(-c2ccccc2-c2nnn[nH]2)cc1` [Compound 26], the pIC50 is 5.70.

With `CCCCc1nc2c(c(=O)n(CCCC)c(=O)n2CCCC)n1Cc1ccc(-c2ccccc2-c2nnn[nH]2)cc1` [Compound 27], the pIC50 was 5.68.

For the molecule `CCCCc1nc2c(c(=O)n(CCC)c(=O)n2CCCC)n1Cc1ccc(-c2ccccc2-c2nnn[nH]2)cc1` [Compound 28], the pIC50 was 6.72.

With `CCCCc1nc2c(c(=O)n(CCCC)c(=O)n2C)n1Cc1ccc(-c2ccccc2-c2nnn[nH]2)cc1` [Compound 29], the pIC50 is 6.00.

With `CCC=CCc1nc2c(c(=O)n(CCC)c(=O)n2CCC)n1Cc1ccc(-c2ccccc2-c2nnn[nH]2)cc1` [Compound 30], the pIC50 is 6.42.

Turning to `CCCCc1nc2c(c(=O)n(CC)c(=O)n2CC)n1Cc1ccc(-c2ccccc2-c2nnn[nH]2)cc1` [Compound 31], the pIC50 was 6.96.

As for `CCCCSc1nc2c(c(=O)n(C)c(=O)n2C)n1Cc1ccc(-c2ccccc2C(=O)O)cc1` [Compound 33], the pIC50 was 6.55.

On to `CCCCSc1nc2c(c(=O)n(C)c(=O)n2C)n1Cc1ccc(-c2ccccc2-c2nnn[nH]2)cc1` [Compound 34], for which the pIC50 is 6.89.

In the case of `CCOc1nc2c(c(=O)n(CC)c(=O)n2CC)n1Cc1ccc(-c2ccccc2-c2nnn[nH]2)cc1` [Compound 35], the pIC50 is 5.96.
